One experiment deals with Staphylococcus aureus. The experiment in a line: Antibacterial activity against methicillin-sensitive Staphylococcus aureus ATCC 25923 measured after 18 hrs by broth dilution method. It is filed as functional. The note with it: ATCC 25923, 18 h.
In another experiment the test system is Micrococcus luteus. The experiment in a line: Antibacterial activity against Micrococcus luteus ATCC 9431 measured after 18 hrs by broth dilution method. The class given is functional. The settings on record: ATCC 9431, 18 h. (Broth dilution looks for growth in wells or tubes with falling amounts of substance.)

This is an account of results in ChEMBL document CHEMBL3864122, “Antibacterial sulfur-containing platensimycin and platencin congeners from Streptomyces platensis SB12029” (2016).

The structures appear in SMILES notation.

For orientation: MIC means the lowest concentration that inhibits growth of the organism. Low readings indicate inhibition by little substance, high ones a need for much substance.

Regarding `C[C@]12C[C@@]34C=CC(=O)[C@@](C)(CCC(=O)Nc5c(O)ccc(C(=O)O)c5O)[C@@H]3[C@H](C[C@@H]1C4)O2`, the MIC in the experiment with Staphylococcus aureus and against Micrococcus luteus was 1.13 µM each time.
In the case of `C[C@]12C[C@@]34C=CC(=O)[C@@](C)(CCC(=O)Nc5c(O)ccc(C(=O)S[C@H]6CC(=O)[C@@](C)(CCC(=O)Nc7c(O)ccc(C(=O)O)c7O)[C@@H]7[C@@H]8C[C@@H]9C[C@]67C[C@]9(C)O8)c5O)[C@@H]3[C@H](C[C@@H]1C4)O2`, the MIC in the experiment on Staphylococcus aureus is 0.56 µM; in the experiment on Micrococcus luteus, 0.28 µM.
In the case of `COc1ccc(C(=O)SC)c(OC)c1NC(=O)CC[C@]1(C)C(=O)C=C[C@]23C[C@H]4C[C@H](O[C@@]4(C)C2)[C@H]31`, the results for the MIC against Staphylococcus aureus and against Micrococcus luteus were more than 64 µg/mL and 64 µg/mL, respectively.
